In patent US11739098B2 (BRISTOL-MYERS SQUIBB COMPANY, priority 2017, dated 2023):

How the values were obtained:
Assay type in all cases: cell-based
human TLR7 = biological target: T1, human TLR7 (Homo sapiens, UniProt Q9NYK1); assay: TLR7 inhibition reporter assay (HEK-Blue cells, SEAP reporter, gardiquimod stimulation); details: HEK-Blue cells overexpressing human TLR7, SEAP reporter, gardiquimod 7.5 μM
T1 construct: host or cells: HEK-Blue cells (HEK293-derived reporter line)
T1 sequence (Q9NYK1 27-1049): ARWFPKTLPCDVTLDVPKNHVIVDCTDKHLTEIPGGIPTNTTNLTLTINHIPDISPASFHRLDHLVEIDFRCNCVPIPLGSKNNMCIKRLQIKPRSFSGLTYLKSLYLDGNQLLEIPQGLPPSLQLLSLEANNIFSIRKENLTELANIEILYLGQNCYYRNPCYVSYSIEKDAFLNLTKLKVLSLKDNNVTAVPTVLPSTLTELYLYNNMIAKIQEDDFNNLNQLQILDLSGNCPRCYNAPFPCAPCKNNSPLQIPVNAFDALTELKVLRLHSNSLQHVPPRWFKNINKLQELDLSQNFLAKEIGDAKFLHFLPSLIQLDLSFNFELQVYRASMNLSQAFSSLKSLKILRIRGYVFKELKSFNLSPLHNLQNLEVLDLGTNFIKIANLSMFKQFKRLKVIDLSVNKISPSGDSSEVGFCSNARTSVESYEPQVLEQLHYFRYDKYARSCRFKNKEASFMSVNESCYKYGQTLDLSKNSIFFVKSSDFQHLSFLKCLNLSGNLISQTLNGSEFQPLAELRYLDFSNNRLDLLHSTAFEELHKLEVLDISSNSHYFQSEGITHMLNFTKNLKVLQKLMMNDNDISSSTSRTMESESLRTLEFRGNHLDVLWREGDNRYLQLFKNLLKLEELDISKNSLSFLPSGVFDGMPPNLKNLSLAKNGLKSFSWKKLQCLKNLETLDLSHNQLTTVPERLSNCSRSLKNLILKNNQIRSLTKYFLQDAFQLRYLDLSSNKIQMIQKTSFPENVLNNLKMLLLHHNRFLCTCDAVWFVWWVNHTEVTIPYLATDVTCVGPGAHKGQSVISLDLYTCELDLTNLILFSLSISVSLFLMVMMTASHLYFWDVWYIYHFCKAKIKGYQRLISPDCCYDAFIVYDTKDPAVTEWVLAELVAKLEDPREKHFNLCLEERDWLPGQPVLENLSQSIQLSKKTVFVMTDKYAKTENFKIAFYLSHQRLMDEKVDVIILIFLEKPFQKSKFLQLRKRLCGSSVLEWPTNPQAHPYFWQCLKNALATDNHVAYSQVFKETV
Summary of the method: (§1)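 HEK-Blue cells overexpressing human TLR7, TLR8 or TLR9 (NF-κB/AP-1-driven SEAP) pre-treated 30 min at room temperature with compound (0.05 nM–50 μM), then stimulated with gardiquimod 7.5 μM (TLR7), R848 15.9 μM (TLR8) or ODN2006 5 nM (TLR9). SEAP read colorimetrically after 22 h at 37 °C; % inhibition calculated.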

human TLR9 = biological target: T2, human TLR9 (Homo sapiens, UniProt Q9NR96); assay: TLR9 inhibition reporter assay (HEK-Blue cells, SEAP reporter, ODN2006 stimulation); details: HEK-Blue cells overexpressing human TLR9, SEAP reporter, ODN2006 5 nM
T2 construct: host or cells: HEK-Blue cells (HEK293-derived reporter line)
T2 sequence (Q9NR96 26-1032): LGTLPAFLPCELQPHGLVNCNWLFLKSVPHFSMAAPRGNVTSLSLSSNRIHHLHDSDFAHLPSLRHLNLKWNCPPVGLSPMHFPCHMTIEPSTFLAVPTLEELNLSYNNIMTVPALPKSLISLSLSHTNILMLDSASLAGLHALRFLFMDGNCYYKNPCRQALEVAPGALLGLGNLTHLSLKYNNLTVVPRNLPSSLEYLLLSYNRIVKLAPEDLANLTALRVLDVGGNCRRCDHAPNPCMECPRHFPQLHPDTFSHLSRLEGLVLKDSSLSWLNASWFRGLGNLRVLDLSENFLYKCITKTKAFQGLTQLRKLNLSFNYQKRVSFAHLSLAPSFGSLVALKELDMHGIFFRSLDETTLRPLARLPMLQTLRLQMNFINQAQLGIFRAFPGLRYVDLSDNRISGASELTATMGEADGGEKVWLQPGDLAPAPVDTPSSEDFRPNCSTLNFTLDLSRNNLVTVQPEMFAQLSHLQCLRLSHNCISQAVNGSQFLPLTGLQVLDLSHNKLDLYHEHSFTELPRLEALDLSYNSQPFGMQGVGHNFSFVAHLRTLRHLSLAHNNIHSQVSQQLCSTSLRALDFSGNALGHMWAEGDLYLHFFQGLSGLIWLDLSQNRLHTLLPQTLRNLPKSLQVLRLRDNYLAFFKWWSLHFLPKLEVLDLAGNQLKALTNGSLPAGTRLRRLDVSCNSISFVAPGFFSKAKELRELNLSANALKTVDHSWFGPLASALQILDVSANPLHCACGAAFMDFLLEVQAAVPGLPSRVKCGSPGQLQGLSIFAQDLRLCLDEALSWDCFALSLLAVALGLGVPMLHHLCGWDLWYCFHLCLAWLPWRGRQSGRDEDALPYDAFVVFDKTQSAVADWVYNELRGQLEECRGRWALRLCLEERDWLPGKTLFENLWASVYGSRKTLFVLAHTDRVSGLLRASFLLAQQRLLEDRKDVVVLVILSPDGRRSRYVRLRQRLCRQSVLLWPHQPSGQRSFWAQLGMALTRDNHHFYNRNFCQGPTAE
Summary of the method: as §1

human TLR8 = biological target: T3, human TLR8 (Homo sapiens, UniProt Q9NR97); assay: TLR8 inhibition reporter assay (HEK-Blue cells, SEAP reporter, R848 stimulation); details: HEK-Blue cells overexpressing human TLR8, SEAP reporter, R848 15.9 μM
T3 construct: host or cells: HEK-Blue cells (HEK293-derived reporter line)
T3 sequence (Q9NR97 27-1041): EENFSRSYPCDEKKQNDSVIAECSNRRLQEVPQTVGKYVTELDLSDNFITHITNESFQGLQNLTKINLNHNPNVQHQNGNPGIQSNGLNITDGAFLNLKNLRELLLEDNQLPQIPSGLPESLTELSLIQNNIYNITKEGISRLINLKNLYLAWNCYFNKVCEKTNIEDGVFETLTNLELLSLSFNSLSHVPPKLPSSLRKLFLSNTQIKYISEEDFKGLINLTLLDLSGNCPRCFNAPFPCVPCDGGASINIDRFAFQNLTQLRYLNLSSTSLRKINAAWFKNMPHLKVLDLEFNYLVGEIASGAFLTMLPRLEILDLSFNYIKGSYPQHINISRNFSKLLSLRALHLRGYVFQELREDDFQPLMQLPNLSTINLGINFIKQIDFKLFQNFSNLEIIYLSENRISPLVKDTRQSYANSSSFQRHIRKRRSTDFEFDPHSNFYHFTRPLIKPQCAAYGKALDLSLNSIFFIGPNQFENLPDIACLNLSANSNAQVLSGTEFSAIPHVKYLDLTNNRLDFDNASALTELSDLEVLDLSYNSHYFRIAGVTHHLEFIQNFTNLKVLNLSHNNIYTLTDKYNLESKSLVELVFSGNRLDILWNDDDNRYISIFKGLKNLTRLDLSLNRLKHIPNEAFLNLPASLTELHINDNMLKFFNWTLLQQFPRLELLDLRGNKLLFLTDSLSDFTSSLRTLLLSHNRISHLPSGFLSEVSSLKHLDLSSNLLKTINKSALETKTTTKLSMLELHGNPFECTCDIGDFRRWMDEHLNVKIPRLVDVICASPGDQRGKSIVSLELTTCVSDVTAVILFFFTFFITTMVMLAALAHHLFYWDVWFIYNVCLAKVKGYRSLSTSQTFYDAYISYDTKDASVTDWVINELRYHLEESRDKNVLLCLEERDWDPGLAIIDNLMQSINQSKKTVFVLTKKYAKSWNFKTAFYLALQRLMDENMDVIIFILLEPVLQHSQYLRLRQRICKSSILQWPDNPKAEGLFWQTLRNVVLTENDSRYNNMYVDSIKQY
Summary of the method: as §1

Row | IC50 (human TLR7) [µM] | IC50 (human TLR9) [µM] | IC50 (human TLR8) [µM] | SMILES
1 | 0.1 to 1 | 1 to 50 | 0.1 to 1 | Cc1cc(-c2[nH]c3ccc(C4CCN(CCCC(F)(F)F)CC4)cc3c2C(C)C)cn2nncc12 [Example 960, 6-(3-isopropyl-5-(1-(4,4,4-trifluorobutyl)piperidin-4-yl)-1H-indol-2-yl)-4-methyl-[1,2,3]triazolo[1,5-a]pyridine]
2 | < 0.1 | 1 to 50 | < 0.1 | CC(C)c1c(-c2ccnc3[nH]ccc23)[nH]c2ccc(C3CCNCC3)cc12 [Example 1, 4-(3-isopropyl-5-(piperidin-4-yl)-1H-indol-2-yl)-1H-pyrrolo[2,3-b]pyridine]
3 | 0.1 to 1 | 1 to 50 | < 0.1 | Cc1c(-c2[nH]c3ccc(C4CCNCC4)cc3c2C(C)C)ccc2nnnn12 [Example 72, 6-(3-isopropyl-5-(piperidin-4-yl)-1H-indol-2-yl)-5-methyltetrazolo[1,5-a]pyridine]
4 | 0.1 to 1 | 0.1 to 1 | 1 to 50 | Cc1cn2c(C)cc(-c3[nH]c4ccc(C5CCN(CC(=O)N(C)C)CC5)cc4c3C(C)C)cc2n1 [Example 353, 2-(4-(2-(2,5-dimethylimidazo[1,2-a]pyridin-7-yl)-3-isopropyl-1H-indol-5-yl)piperidin-1-yl)-N,N-dimethylacetamide]
5 | < 0.1 | 1 to 50 | < 0.1 | CNC(=O)CN1CCC(c2ccc3[nH]c(-c4nn5ncnc5c(C)c4C)c(C(C)C)c3c2)CC1 [Example 279, 2-(4-(2-(7,8-dimethyl-[1,2,4]triazolo[1,5-b]pyridazin-6-yl)-3-isopropyl-1H-indol-5-yl)piperidin-1-yl)-N-methylacetamide]
6 | 0.1 to 1 | 1 to 50 | 0.1 to 1 | CC(C)c1c(-c2ccnc3[nH]ncc23)[nH]c2ccc(C3CCN(C(=O)c4cn[nH]c4)CC3)cc12 [Example 610, (4-(3-isopropyl-2-(1H-pyrazolo[3,4-b]pyridin-4-yl)-1H-indol-5-yl)piperidin-1-yl)(1H-pyrazol-4-yl)methanone]
7 | < 0.1 | 0.1 to 1 | < 0.1 | CC(C)c1c(-c2c[nH]c3ncccc23)[nH]c2ccc(C3CCNCC3)cc12 [Example 17, 3-(3-isopropyl-5-(piperidin-4-yl)-1H-indol-2-yl)-1H-pyrrolo[2,3-b]pyridine]
8 | < 0.1 | < 0.1 | 0.1 to 1 | CN(C)CC(=O)N1CCC(c2ccc3[nH]c(-c4ccn5ccnc5c4)c(CC(F)F)c3c2)CC1 [Example 571, 1-(4-(3-(2,2-difluoroethyl)-2-(imidazo[1,2-a]pyridin-7-yl)-1H-indol-5-yl)piperidin-1-yl)-2-(dimethylamino)ethan-1-one]
9 | < 0.1 | 0.1 to 1 | < 0.1 | CNC(=O)CN1CCC(c2ccc3[nH]c(-c4cc(CO)c5nccn5c4)c(C(C)C)c3c2)CC1 [Example 341, 2-(4-(2-(8-(hydroxymethyl)-6-imidazo[1,2-a]pyridinyl-6-yl)-3-isopropyl-1H-indol-5-yl)piperidin-1-yl)-N-methylacetamide]
10 | < 0.1 | 1 to 50 | 0.1 to 1 | Cc1cc2nnnn2cc1-c1[nH]c2ccc(C3CCN(C4COC4)CC3)cc2c1C(C)C [Example 742, 6-(3-isopropyl-5-(1-(oxetan-3-yl)piperidin-4-yl)-1H-indol-2-yl)-7-methyltetrazolo[1,5-a]pyridine]
11 | < 0.1 | 0.1 to 1 | < 0.1 | CCOc1cc(-c2[nH]c3ccc(C4CCNCC4)cc3c2C(C)C)cc2ncnn12 [Example 157, 5-ethoxy-7-(3-isopropyl-5-(piperidin-4-yl)-1H-indol-2-yl)-[1,2,4]triazolo[1,5-a]pyridine]
12 | 0.1 to 1 | 1 to 50 | < 0.1 | CCc1c(-c2ccnc3[nH]ncc23)[nH]c2ccc(C3CCN(C(C)C)CC3)cc12 [Example 957, 4-(3-ethyl-5-(1-isopropylpiperidin-4-yl)-1H-indol-2-yl)-1H-pyrazolo[3,4-b]pyridine]
13 | < 0.1 | 1 to 50 | < 0.1 | Cc1cc2ncnn2nc1-c1[nH]c2ccc(C3CCNCC3)cc2c1C(C)C [Example 31, 6-(3-isopropyl-5-(piperidin-4-yl)-1H-indol-2-yl)-7-methyl-[1,2,4]triazolo[1,5-b]pyridazine]
14 | 1 to 50 | 1 to 50 | 1 to 50 | CCc1c(-c2cnc3cccnn23)[nH]c2ccc(C3CCNCC3)cc12 [Example 187, 3-(3-ethyl-5-(piperidin-4-yl)-1H-indol-2-yl)imidazo[1,2-b]pyridazine]
15 | < 0.1 | < 0.1 | < 0.1 | Cc1c(-c2ccnc3[nH]ccc23)[nH]c2ccc(C3CCN(C4CCN(C(C)C)CC4)CC3)cc12 [Example 813, 4-(5-(1′-isopropyl-[1,4′-bipiperidin]-4-yl)-3-methyl-1H-indol-2-yl)-1H-pyrrolo[2,3-b]pyridine]
